# Entries after “also recorded” stand apart in the source; their conditions may differ. Read-outs that look alike come from different tables or passages of the source.
# Experiments:
# [1] = system: Normal human epidermal keratinocytes (HEKn); experiment: Keratinocyte blebbing response, light microscopy (Example 1)
# Protocol: Normal human epidermal keratinocytes (HEKn, Cascade Biologics, Portland, Oreg., USA) were maintained in phenol red-free EpiLife keratinocyte medium (Cascade Biologics) supplemented with 60 μM CaCl2, the antibiotics gentamicin/amphotericin and 1% (v/v) human keratinocyte growth supplement (HKGS; Cascade Biologics). Alternatively, Medium 154 containing 200 μM CaCl2 supplemented with HKGS (1% (v/v), without antibiotics is used. Cells were grown at 37° C. in a humidified 5% CO2 incubator. Final concentrations of the components in the supplemented medium were: bovine pituitary extract, 0.2% v/v; bovine insulin, […]; hydrocortisone, […]; bovine transferrin, […]; human epidermal growth factor, 0.2 ng/mL; optional: gentamicin, 10 μg/mL and amphotericin B, 0.25 μg/mL. All reagents were obtained from Cascade Biologics, Portland, Oreg., USA. The keratinocytes were used for experiments in the fifth or sixth passage.
# HEKn cells in passage 6 were split and resuspended to 18500 cells/ml in medium 154 (Cascade Biologics) supplemented with 1% (v/v) human keratinocyte growth supplement (HKGS; Cascade Biologics, no antibiotics added). Cell suspension (0.5 ml) was added to each well in a 24 well plate (Nunc Multidishes Nunclon, Sigma Aldrich, Stockholm, Sweden) and incubated at 37° C., 5% CO2. The medium was replaced every second day by fresh 154 medium supplemented with HKGS (no antibiotics added) until cells had grown confluent.
# The compounds to be tested (for example: mBBr, SDS, CDNB, nonanoic acid, HCA, oxazolone were purchased from Sigma Aldrich, qBBr, dBBr, glyoxal, and formaldehyde were obtained from Merck-Schuchardt, Darmstadt, Germany) were diluted in DMSO (Sigma Aldrich, Stockholm, Sweden) to final concentrations of 50 mM, 5 mM and 0.5 mM. These stock solutions were prepared fresh each time the experiment was performed. Alternatively, the mixture, solution, formulation, etc. can be used after dilution/dissolving in DMSO (to test the combined effects of the compounds in that particular preparation).
# 1) Cell preparation just prior to starting the experiment: the medium in the cell culture plate was replaced by 250 μl fresh Medium 154 (Cascade Biologics) supplemented with HKGS (1% (v/v) human keratinocyte growth supplement (HKGS; Cascade Biologics)) and the cells are kept at 37° C., 5% CO2.
# 2) Preparation of test compound in medium: 245 μl Medium 154 was added to 0.5 ml microtubes and preheated to 37° C. (waterbath). 5 μl of stock solution of compound was added to the microtubes containing preheated medium. These solutions were then added immediately to the cells in the 24-well plate.
# 3) The solutions in the microtubes (i.e. 250 μl medium+test compound) were added to each plate. The final concentration of each compound in the test was thus 0.5 mM, 0.05 mM, and 0.005 mM. The plate containing cells and test compounds was incubated for 24 hours at 37° C., 5% CO2.
# 4A) Each well was examined with a light microscope to determine the blebbing response (a Nikon TE300 inverted microscope) coupled to a digital camera.
# [2] = system: serum amyloid P component (SAP); experiment: Serum amyloid P component (SAP) in sera of mice exposed to sensitizers; format: in vivo; conditions: sera of mice exposed to sensitizer
# [3] = system: anti-nuclear antibodies (ANA); experiment: Anti-nuclear antibodies (ANA) in sera of mice topically exposed to haptens; format: in vivo; conditions: topical exposure
# [4] = system: K5 and K14 in blebs from human keratinocytes; experiment: Keratin content of blebs released from keratinocytes (Western blot); format: cell-based; conditions: blebs from hapten-treated keratinocytes
# Protocol: The quantification of the blebbing response was also made by observing: the amount of released protein (e.g. K5 and K14) through SDS-PAGE and western blots. Blebs were collected and lysed as described in example 4. SDS-PAGE: The samples were diluted (Blebs: 46 μg, 30 μl for blotting and 29.2 μg, 40 μl for SDS-PAGE. K14 and K5: 0.2 μg, 5 μl) with XT Sample Buffer 4X (BioRad, Hercules, Calif., USA) and milli-Q water. 1 μl DTT (2M) was added to each sample followed by heating at 96° C. for 2 minutes before application on the gel. Electrophoresis program: 200V, 400 mA, 50 W, 50 min. MOPS Running Buffer. The gels were fixed, scanned for fluorescence (excitation 480 nm, emission 530 nm) and coomassie stained (Bio-Safe™ Coomassie, BioRad, Hercules, Calif., USA). The gels are then used for quantitative measurement of proteins. Western Blot: Unfixed gels were blotted onto polyvinyldifluoride membranes (PVDF Ready-gel Blotting Sandwiches, 7×8.5 cm, BioRad, Hercules, Calif., USA). Blotting program: 70 V, 400 mA, 50 W, 30 min. Transfer buffer. Novex XCell II™ Blot Module (E19051, Novex, San Diego, Calif., USA). […]
# The blebs in the supernatant was lysed with 4× freeze-thaw cycles using ethanol, dry ice and a 37° C. water bath. […] Total protein concentration was determined with Pierce BCA Protein Assay. […]
# human skin excerpts = experiment: Labeling of human skin excerpts by caged haptens
# From the text: The first step is that the molecules come into contact with the skin (the stratum corneum). Many of the reactive molecules react in the stratum corneum, something that can be seen in experiments with human skin excerpts and the caged (mBBr and dBBr) haptens. However, a significant proportion of the molecules penetrate further down to the suprabasal layers of the epidermis but also the follicular pathway is of importance for bringing xenobiotics into the skin. It is likely that the penetration is due both to the acidic pH of the stratum corneum (the molecules react more slowly when the pH is low), but also because many of the available groups have reacted. In the suprabasal layers, the haptens have a hard time penetrating the cells, as the cornification of the cells creates a thick, relatively impermeable envelope around the suprabasal cells. Consequently, the haptens penetrate down to the basal layer. Here, the cell membrane is much thinner and more fluidic and the molecules can thus enter the basal cells.
# cysteine 54 (C54) of K5 = target: T1, cysteine 54 (C54) of K5 (Homo sapiens, UniProt P13647); experiment: Haptenation site by LTQ-FT-ICR mass spectrometry; conditions: full-thickness human skin and living human keratinocytes
# T1 construct: endogenous in cells; host or cells: intact full-thickness human skin; living (primary) human keratinocytes
# T1 sequence (P13647 1-590): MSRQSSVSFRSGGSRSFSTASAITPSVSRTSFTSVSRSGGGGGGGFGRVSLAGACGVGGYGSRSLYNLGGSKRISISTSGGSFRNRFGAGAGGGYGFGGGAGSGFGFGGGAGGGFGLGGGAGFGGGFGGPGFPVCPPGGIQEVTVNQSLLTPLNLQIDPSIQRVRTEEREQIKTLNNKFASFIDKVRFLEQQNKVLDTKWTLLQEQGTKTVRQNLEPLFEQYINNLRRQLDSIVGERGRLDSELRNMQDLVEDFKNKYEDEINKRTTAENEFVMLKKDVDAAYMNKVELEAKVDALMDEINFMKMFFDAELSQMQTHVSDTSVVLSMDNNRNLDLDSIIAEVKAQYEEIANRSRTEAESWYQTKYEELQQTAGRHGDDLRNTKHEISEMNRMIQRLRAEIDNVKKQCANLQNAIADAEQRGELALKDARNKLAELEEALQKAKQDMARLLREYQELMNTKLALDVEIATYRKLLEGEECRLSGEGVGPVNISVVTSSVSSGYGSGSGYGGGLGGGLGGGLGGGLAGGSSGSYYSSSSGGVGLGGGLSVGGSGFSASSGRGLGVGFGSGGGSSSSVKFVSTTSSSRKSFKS
# T1 sequence (P02533 1-472 partner): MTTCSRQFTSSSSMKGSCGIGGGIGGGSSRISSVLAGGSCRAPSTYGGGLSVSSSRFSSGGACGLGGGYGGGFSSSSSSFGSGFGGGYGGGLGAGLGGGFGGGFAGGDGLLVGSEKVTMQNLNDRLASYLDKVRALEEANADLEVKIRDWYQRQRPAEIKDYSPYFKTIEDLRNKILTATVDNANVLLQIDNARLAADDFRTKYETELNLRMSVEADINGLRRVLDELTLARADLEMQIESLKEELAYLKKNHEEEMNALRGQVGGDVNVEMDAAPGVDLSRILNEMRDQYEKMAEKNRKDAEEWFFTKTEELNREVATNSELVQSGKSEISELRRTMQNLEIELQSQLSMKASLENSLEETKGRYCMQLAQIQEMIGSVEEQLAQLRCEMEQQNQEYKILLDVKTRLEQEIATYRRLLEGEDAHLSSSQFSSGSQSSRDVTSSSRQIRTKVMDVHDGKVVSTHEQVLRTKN
# From the text: The second step is that the molecules enter the basal cells. Since the extracellular environment is oxidizing, extracellular cysteines are mostly oxidized to disulfides. However, it is in the reduced, intracellular environment that the haptens find reduced thiols to react with. Once inside the cells the compounds will react with available (i.e. not sterically hindered), reduced cysteines (thiol groups). […] Furthermore, it was identified that one of the cysteines that the haptens react with is cysteine 54 (C54) of K5. […] One of the reasons for intense reaction at C54 is presumably its high effective concentration just inside the cell membrane. It is vital in the life of an organism to fail-safe its epithelial integrity, and the bundling of the KIFs ensures a high effective local concentration of the peptide stretch containing C54, ensuring strong welding of the cell to its surroundings. Amino acids nearby in the primary sequence are consequently also located within physical reach of an incoming compound in similarly high effective concentrations. Looking at blebbing brought on by amine- and arginine-reactive compounds from this angle, the residues K71 and R72 are the closest candidates in the primary sequence.
# [5] = HEKn cells, tested at 0.5, 0.05 and 0.005 mM
# [6] = HEKn cells, time 24 h and concentration 0.5 mM, visual inspection, blind
# [7] = compound added to human keratinocytes
Structure (SMILES),"Concentration at which the cells produced blebs after 24 hours [1, 5] [µM]","Amount of blebs [1, 6]","Blebbing response of human keratinocytes (induced or not) [1, 7]",Level of serum amyloid P component (SAP) [2],Level of anti-nuclear antibodies (ANA) in sera [3],Blebbing response of human keratinocytes (induced or not) [1],"Sensitizing potential, collective analysis of the three blebbing endpoints [1]",Keratins (K5 and K14) in blebs [4],other results
"O=[N+]([O-])c1ccc(Cl)c([N+](=O)[O-])c1 [CDNB, 1-chloro 2,4 dinitrobenzene]",500,++,provoke a blebbing response,increased levels,increased levels,,,,"Time to blebbing ([1]; HEKn cells, inspected at 1.5, 2.5 and 24 h, tested at 0.5, 0.05 and 0.005 mM): 24 h; Sensitizing potential, collective analysis of the three blebbing endpoints ([1]; time to blebbing, concentration, amount of blebs combined): strong sensitizers"
"CCCCCCC(C=O)=Cc1ccccc1 [HCA, α-hexyl cinnamic aldehyde]",,,,,,did not induce blebbing at the tested concentrations,,,
C=O [formaldehyde],,,,,,provoke a blebbing response,,,
O=CC=O [glyoxal],500,+,provoke a blebbing response,increased levels,increased levels,,moderate sensitizer,contain K5 and K14; also recorded: contain keratins,
"Cc1c(C)n2c(CBr)c(C)c(=O)n2c1=O [mBBr, monobromobimane]",,,,,increased levels,,,,Labeling of cells in the basal layer (human skin excerpts): cells in the basal layer are labeled; Covalent modification of C54 of K5 (cysteine 54 (C54) of K5): modify C54 of K5; also recorded: modifies C54 of K5
CCO/C=C1\N=C(c2ccccc2)OC1=O [oxazolone],,,,,increased levels,provoke a blebbing response,extreme sensitizer,contain K5 and K14; also recorded: contain keratins,Amount of blebs [1]: +++; Time to blebbing [1]: 1.5 h

# From US20110245104A1, “Method for screening the sensitizing properties of chemical compounds” (priority 2010, published 2011)
